Measurements: paper PMC11184611, “Development of Nontoxic Peptides for Lipopolysaccharide Neutralization and Sepsis Treatment” (ACS Pharmacology & Translational Science, 2024)
Like-named read-outs stand apart in the source and are kept apart here. No end group written: not given here.

Assays:
S. aureus (ATCC 6538P) = type: cell-based, Staphylococcus aureus
Method: (§1) The antibacterial activity of the peptides was examined in sterile 96-well plates (Nunc 96-well microtiter plates) in a final volume of 100 μL, as follows. Aliquots (50 μL) of a suspension containing bacteria at a concentration of 10^6 colony-forming units/mL in culture medium (LB medium) were added to 50 μL of peptide serially diluted in culture medium (100–0.78 μM). Inhibition of growth was determined by the eye after an incubation of 18–20 h at 37 °C. Antibacterial activities were expressed as the minimal inhibitory concentration (MIC), the concentration at which 100% inhibition of growth was observed after 18–20 h of incubation. In these experiments, we have tested the effect of the peptides on E. coli (ATCC 25922) and Staphylococcus aureus (ATCC 6538P) as representatives of both Gram-negative and Gram-positive bacteria, respectively.

E. coli (ATCC 25922) = type: cell-based
Method: as §1

[1] = tested on: RAW264.7 murine macrophages; type: cell-based
Method: All in vitro assays were performed on RAW264.7 murine macrophages (ATCC TIB-71). Cells were grown in Dulbecco’s modified eagle medium (DMEM) supplemented with 10% fetal bovine serum (FBS), L-glutamine, sodium pyruvate, nonessential amino acids, and antibiotics (Biological Industries, Beit Haemek, Israel). The incubator was set on 37 °C with a humidified atmosphere containing 5% CO2.
One ×10^4 cells per well were grown overnight on a 96-well plate at 37 °C with a humidified atmosphere containing 5% CO2. The following day, the media were replaced with 90 μL fresh culture medium and 10 μL solution buffer containing different concentrations of the different peptides. Peptides were serially diluted in culture medium to concentration ranging from 100 to 0.78 μM. The cells were then incubated for 2 h before adding to each well 50 μL of […] (XTT) reaction solution (Biological Industries). Cell viability was determined as described previously.[52],[54] The LC50 (the concentration at which 50% of the cells die) for each peptide was obtained from the dose-dependent cell viability curves.

C57BL/6 mice = test: In vivo toxicity, i.p. injection; details: 100 mg/kg i.p. in 400 μL saline, highest dose tested, female C57BL/6 mice, n = 2, observed 7 days
Method: Toxicity was tested by i.p. injection of K2(AL)8K2 (100 mg/kg in 400 μL saline) in female C57BL/6 mice (n = 2). Mice were continuously observed for 1 h immediately following injection and once per day for 7 days. To examine the effect of our peptide on acute septic shock driven by LPS hyper-activation of TLR4, we have used murine models as described before.[55],[56] Briefly, 12 weeks old C57BL/6 female mice were treated with 100 ng of LPS injected i.p. in a saline solution (200 μL, pH 6.5) containing 200 mg/mL of D-galactosamine (Calbiochem). Treated mice received one i.p. injection of 10 mg/kg peptide dissolved in saline (200 μL) followed by an injection of LPS. In the second model, heat-killed bacteria were used to induce a lethal septic shock. E. coli cells were grown to a mid-log phase (optical density = 0.5) at 37 °C, cooled on ice, and centrifuged at 1200g for 10 min at 4 °C. The cells were resuspended in saline for a concentration of 2 × 10^9 cells in 200 μL and heated at 95 °C for 30 min. Each animal received an i.p. injection of 2 × 10^9 cells in 200 μL saline followed by an injection of 10 mg/kg peptide dissolved in saline (200 μL). Animals were monitored for survival and signs of sepsis for the next 14 days after LPS injection. For LPS-driven septic shock, n = 8. For heat-killed bacteria, n = 11. […]

[2] = XTT, cells incubated 2 h with peptide, 100 to 0.78 μM
[3] = 100% inhibition of growth, by eye, after 18–20 h at 37 °C, LB medium, peptide 100–0.78 μM

| Substance | MIC S. aureus (ATCC 6538P) (S. aureus (ATCC 6538P)) [µM] | MIC E. coli (ATCC 25922) (E. coli (ATCC 25922); ATCC 25922) [µM] | toxicity to macrophages [1] | LC50 macrophages RAW 264.7 ([1]; 2 h) [µM] | cytotoxicity ([1]; RAW264.7) | LC50 macrophages RAW 264.7 [1, 2] [µM] | toxicity to macrophages ([1]; summary table, yes/no) | toxicity in vivo (C57BL/6 mice) | MIC S. aureus (ATCC 6538P) (S. aureus (ATCC 6538P); [3]) [µM] | MIC E. coli (ATCC 25922) (E. coli (ATCC 25922); [3]) [µM] |
| --- | --- | --- | --- | --- | --- | --- | --- | --- | --- | --- |
| KKALALALALALAKK-NH2 [K2(AL)5AK2] | >100 | >100 | no | >100 |  |  |  |  |  |  |
| KALALALKALALKALALALK-NH2 [K(AL)3K(AL)2K(AL)3K] | 12.5 | 25 |  |  | moderate toxicity | 25 | yes |  |  |  |
| KKALALALKK-NH2 [K2(AL)3K2] | >100 | >100 | no | >100 |  |  |  |  |  |  |
| ALALALALALALALALALKK-NH2 [(AL)9K2] | >100 | >100 | no | >100 |  |  |  |  |  |  |
| KKALALALALALALALALKK-NH2 [K2(AL)8K2] | >100 | >100 | no | >100 |  |  |  | no lasting adverse effects were observed |  |  |
| LALALALALALALALALALK-NH2 [L(AL)9K] |  |  |  |  |  | >100 | no |  | >100 | >100 |
| KKAVAVAVAVAVAVAVAVKK-NH2 [K2(AV)8K2] | >100 | >100 |  | 90 |  |  |  |  |  |  |
| KALALALALALALALALALK-NH2 [K(AL)9K] | >100 | >100 | no | >100 |  |  |  |  |  |  |
